Patent US20260265244A1, “HETEROCYCLIC COMPOUNDS AS STING ANTAGONISTS” (Boehringer Ingelheim International GmbH, priority 2022, published 2026)

Test system: STING inhibition in human whole blood (IFNα2α production)
Experiment: Human whole blood assay (HWBA): cGAMP-stimulated IFNα2α production
Format: cell-based
Conditions: Homo sapiens
Experimental: For the detection of STING inhibition in physiological environment human whole blood was stimulated by the cyclic dinucleotide cGAMP. Pathway activity was monitored by measuring the IFNα2α production.
Assay method: Compounds were delivered as 10 mM DMSO solution and serial diluted and transferred to the 96-well Cell culture Plate (Corning #3595), prefilled with 20 μl OptiMEM (Gibco #11058-021) in each well, using an Echo acoustic dispenser. Typically, 8 concentrations were used with the highest concentration at 10 μM in the final assay volume followed by ~1:5 dilution steps. DMSO concentration was set to 0.1% in the final assay volume. The 96 well assay plate contained 9 test compounds, a reference compound and DMSO in control wells.
Collection of human whole blood from 3 or more healthy donors (male or female, no medication for 7 days, exception contraceptive and thyroxine) as Na-citrate blood (e.g. 3.8% in Monovettes from Sarstedt) is conducted in parallel. Whole blood was kept at room temperature for a maximum of 3 hours after collection until use in the assay.
160 μl of the whole blood samples were transferred to each well of the 96-well assay plates filled with compound/OptiMEM. All assay plates are prepared as duplicates with blood from different donors. Blood plates were kept at room temperature for 60 minutes and continuous shaking with 450 rpm, covered with the lid, but not sealed.
A 10× cGAMP assay solution was diluted from a 2 mM stock solution in 1×HBSS immediately before use at room temperature. 20 μl of the 10× cGAMP/HBSS were added to all compound and all high control wells, whereas HBSS only was added to all low control wells.
After covering assay plates with aera seals and the lid, blood plates were kept at room temperature for 30 minutes and continuous shaking with 450 rpm, followed by an overnight incubation of 22 h at 37° C. in the incubator, without shaking.
For the detection of IFNα-2α in human plasma, the biotinylated capture antibody (Antibody set IFNA2, Meso Scale Diagnostics #B21VH-3, including coating and capture antibody) was diluted 1:17.5 in Diluent 100 (Meso Scale Diagnostics #R50AA-4, according to the manufacturer. U-Plex MSD GOLD 96-well Small Spot Streptavidin SECTOR Plates (Meso Scale Diagnostics #L45SA-5) were coated with 25 μl diluted capture antibody. Coated plates were incubated for 60 min at room temperature under continuous shaking at 700 rpm. MSD IFNα-2α plates were washed three times with 150 μl wash buffer (1×HBSS, 0.05% Tween).
After blocking the plates with 100 μl block solution/well (1×HBSS with 0.2% Tween, 2% BSA) for 60 min at room temperature and continuous shaking at 700 rpm, plates were emptied as dry as possible by dumping just before continuing with the human plasma. Whole Blood assay plates were centrifuged at 1600 rpm for 10 minutes. 25 μl of supernatant was transferred with a pipetting robotics from each whole blood plate to the corresponding IFNα-2α plate. Plates were sealed with microplate seals and kept at room temperature again under continuous shaking at 700 rpm for two hours. Next MSD IFNα-2α plates were washed three times with 150 μl wash buffer (1×HBSS, 0.05% Tween), before adding 25 μl MSD SULFO-TAG IFNα-2α Antibody solution (1:100 diluted in Diluent 3 (Meso Scale Diagnostics #R50AP-2) to each well of the plates. Afterwards plates were sealed with microplate seals and kept at room temperature again under continuous shaking at 700 rpm for two hours. Finally MSD IFNα-2α plates were washed three times with 150 μl wash buffer (1×HBSS, 0.05% Tween). 150 μl 2×Read buffer was added to each well and plates were immediately measured with the MSD Sector S600 Reader using the vendor barcode.
Data evaluation and calculation: For data evaluation and calculation, % control calculation of each well was based on the mean of high (cGAMP stimulated control) and mean of low (unstimulated control) controls by using the following formula: […]

| Structure (SMILES) | IC50 |
| --- | --- |
| Cc1nc2nn(CCN3CCOCC3)cc2cc1-n1nc(-c2cccc3nn(C[C@H](O)c4ccccc4)cc23)c(C(C)C)c1C [Example 1, (1R)-2-[4-(5-methyl-1-{6-methyl-2-[2-(morpholin-4-yl)ethyl]-2H-pyrazolo[3,4-b]pyridin-5-yl}-4-(propan-2-yl)-1H-pyrazol-3-yl)-2H-indazol-2-yl]-1-phenylethan-1-ol] | 73 nM |
| Cc1nc2nn(CCCC#N)cc2cc1-n1nc(-c2cccc3nn(C[C@H](O)c4ccccc4)cc23)c(C(C)C)c1C [Example 2, 4-[5-(3-{2-[(2R)-2-hydroxy-2-phenylethyl]-2H-indazol-4-yl}-5-methyl-4-(propan-2-yl)-1H-pyrazol-1-yl)-6-methyl-2H-pyrazolo[3,4-b]pyridin-2-yl]butanenitrile] | 54 nM |
| Cc1nc2nn(Cc3cccnc3)cc2cc1-n1nc(-c2cccc3nn(C[C@H](O)c4ccccc4)cc23)c(C(C)C)c1C [Example 6, (1R)-2-[4-(5-methyl-1-{6-methyl-2-[(pyridin-3-yl)methyl]-2H-pyrazolo[3,4-b]pyridin-5-yl}-4-(propan-2-yl)-1H-pyrazol-3-yl)-2H-indazol-2-yl]-1-phenylethan-1-ol] | 61 nM |
| Cc1nc2nn(CCCN3CCN(C)CC3)cc2cc1-n1nc(-c2cccc3nn(C[C@H](O)c4ccccc4)cc23)c(C(C)C)c1C [Example 7, (1R)-2-[4-(5-methyl-1-{6-methyl-2-[3-(4-methylpiperazin-1-yl)propyl]-2H-pyrazolo[3,4-b]pyridin-5-yl}-4-(propan-2-yl)-1H-pyrazol-3-yl)-2H-indazol-2-yl]-1-phenylethan-1-ol] | 61 nM |
| Cc1nc2nn(C)cc2cc1-n1nc(-c2cccc3nn(C[C@H](OCCO)c4ccccc4)cc23)c(C(C)C)c1C [Example 8, 2-[(1R)-2-[4-(1-{2,6-dimethyl-2H-pyrazolo[3,4-b]pyridin-5-yl}-5-methyl-4-(propan-2-yl)-1H-pyrazol-3-yl)-2H-indazol-2-yl]-1-phenylethoxy]ethan-1-ol] | 62 nM |
| COc1ccc(Cn2cc3cc(-c4nc(-c5cccc6nn(C[C@H](O)c7ccccc7)cc56)c(C5CC5)n4C)c(C4CC4)nc3n2)cc1 [Example 9, (1R)-2-[4-(5-cyclopropyl-2-{6-cyclopropyl-2-[(4-methoxyphenyl)methyl]-2H-pyrazolo[3,4-b]pyridin-5-yl}-1-methyl-1H-imidazol-4-yl)-2H-indazol-2-yl]-1-phenylethan-1-ol] | 63 nM |
| Cn1c(-c2cc3cn(CCN4CCOCC4)nc3nc2C2CC2)nc(-c2cccc3nn(C[C@H](O)c4ccccc4)cc23)c1C1CC1 [Example 10, (1R)-2-[4-(5-cyclopropyl-2-{6-cyclopropyl-2-[2-(morpholin-4-yl)ethyl]-2H-pyrazolo[3,4-b]pyridin-5-yl}-1-methyl-1H-imidazol-4-yl)-2H-indazol-2-yl]-1-phenylethan-1-ol] | 69 nM |
| Cc1nc2nn(CCCCO)cc2cc1-n1nc(-c2cccc3nn(C[C@H](O)c4ccccc4)cc23)c(C(C)C)c1C [Example 12, 4-[5-(3-{2-[(2R)-2-hydroxy-2-phenylethyl]-2H-indazol-4-yl}-5-methyl-4-(propan-2-yl)-1H-pyrazol-1-yl)-6-methyl-2H-pyrazolo[3,4-b]pyridin-2-yl]butan-1-ol] | 71 nM |
| Cc1nc2nn(C3CCOC3)cc2cc1-n1nc(-c2cccc3nn(C[C@H](O)c4ccccc4)cc23)c(C(C)C)c1C (stereo partly drawn) [Example 14, (1R)-2-(4-{5-methyl-1-[6-methyl-2-(oxolan-3-yl)-2H-pyrazolo[3,4-b]pyridin-5-yl]-4-(propan-2-yl)-1H-pyrazol-3-yl}-2H-indazol-2-yl)-1-phenylethan-1-ol] | 76 nM |
| Cc1c(C(C)C)c(-c2cccc3nn(C[C@H](O)c4ccc(OCCN5CCOCC5)cc4)cc23)nn1-c1cc2cn(C)nc2nc1C1CC1 [Example 15, (1R)-2-[4-(1-{6-cyclopropyl-2-methyl-2H-pyrazolo[3,4-b]pyridin-5-yl}-5-methyl-4-(propan-2-yl)-1H-pyrazol-3-yl)-2H-indazol-2-yl]-1-{4-[2-(morpholin-4-yl)ethoxy]phenyl}ethan-1-ol] | 77 nM |
| Cc1nc2nn(CCCN3CCCC3=O)cc2cc1-n1nc(-c2cccc3nn(C[C@H](O)c4ccccc4)cc23)c(C(C)C)c1C [Example 21, 1-{3-[5-(3-{2-[(2R)-2-hydroxy-2-phenylethyl]-2H-indazol-4-yl}-5-methyl-4-(propan-2-yl)-1H-pyrazol-1-yl)-6-methyl-2H-pyrazolo[3,4-b]pyridin-2-yl]propyl}pyrrolidin-2-one] | 85 nM |
| CC(C)c1nc2nn(C)cc2cc1-c1nc(-c2cccc3nn(C[S@@+]([O-])c4ccccc4)cc23)c(C2CC2)n1C [Example 22, 2-{[(S)-benzenesulfinyl]methyl}-4-{5-cyclopropyl-1-methyl-2-[2-methyl-6-(propan-2-yl)-2H-pyrazolo[3,4-b]pyridin-5-yl]-1H-imidazol-4-yl}-2H-indazole] | 86 nM |

More lines, now with the values ahead:

| IC50 | Structure (SMILES) |
| --- | --- |
| 73 nM | Cc1c(C(C)C)c(-c2cccc3nn(C[C@H](O)c4ccccc4)cc23)nn1-c1cc2cn(C)nc2nc1C1CCCO1 (stereo partly drawn) [Example 13, (1R)-2-(4-{5-methyl-1-[2-methyl-6-(oxolan-2-yl)-2H-pyrazolo[3,4-b]pyridin-5-yl]-4-(propan-2-yl)-1H-pyrazol-3-yl}-2H-indazol-2-yl)-1-phenylethan-1-ol] |
| 79 nM | COCCn1cc2cc(-n3nc(-c4cccc5nn(C[C@H](O)c6ccccc6)cc45)c(C(C)C)c3C)c(C)nc2n1 [Example 16, (1R)-2-(4-{1-[2-(2-methoxyethyl)-6-methyl-2H-pyrazolo[3,4-b]pyridin-5-yl]-5-methyl-4-(propan-2-yl)-1H-pyrazol-3-yl}-2H-indazol-2-yl)-1-phenylethan-1-ol] |
| 81 nM | COCc1nc2nn(C)cc2cc1-n1nc(-c2cccc3nn(C[C@H](O)c4ccccc4)cc23)c(C(C)C)c1C [Example 17, (1R)-2-(4-{1-[6-(methoxymethyl)-2-methyl-2H-pyrazolo[3,4-b]pyridin-5-yl]-5-methyl-4-(propan-2-yl)-1H-pyrazol-3-yl}-2H-indazol-2-yl)-1-phenylethan-1-ol] |
| 81 nM | Cc1nc2nn(C(C)C)cc2cc1-n1nc(-c2cccc3nn(C[C@H](O)c4ccccc4)cc23)c(C(C)C)c1C [Example 18, (1R)-2-(4-{5-methyl-1-[6-methyl-2-(propan-2-yl)-2H-pyrazolo[3,4-b]pyridin-5-yl]-4-(propan-2-yl)-1H-pyrazol-3-yl}-2H-indazol-2-yl)-1-phenylethan-1-ol] |
| 82 nM | Cc1c(C(C)C)c(-c2cccc3nn(C[C@H](O)c4ccccc4)cc23)nn1-c1cc2cn(C)nc2nc1C(C)O (stereo partly drawn) [Example 19, (1R)-2-(4-{1-[6-(1-hydroxyethyl)-2-methyl-2H-pyrazolo[3,4-b]pyridin-5-yl]-5-methyl-4-(propan-2-yl)-1H-pyrazol-3-yl}-2H-indazol-2-yl)-1-phenylethan-1-ol] |
| 84 nM | CSc1nc2nn(C)cc2cc1-n1nc(-c2cccc3nn(C[C@H](O)c4ccccc4)cc23)c(C(C)C)c1C [Example 20, (1R)-2-(4-{5-methyl-1-[2-methyl-6-(methylsulfanyl)-2H-pyrazolo[3,4-b]pyridin-5-yl]-4-(propan-2-yl)-1H-pyrazol-3-yl}-2H-indazol-2-yl)-1-phenylethan-1-ol] |
| 89 nM | Cc1c(C(C)C)c(-c2cccc3nn(C[C@H](O)c4ccccc4)cc23)nn1-c1cc2cn(C)nc2nc1OC(C)C [Example 23, (1R)-2-(4-{5-methyl-1-[2-methyl-6-(propan-2-yloxy)-2H-pyrazolo[3,4-b]pyridin-5-yl]-4-(propan-2-yl)-1H-pyrazol-3-yl}-2H-indazol-2-yl)-1-phenylethan-1-ol] |
